This passage reports z-score and cell count results from PubChem BioAssay AID2124 (Sanford-Burnham Center for Chemical Genomics, 2009).

Records with an inconclusive call do not appear. Activity calls are given as the source filed them. The rule behind the calls is not given here; tested in MIN6 cells.

The nature of the assay: GFP-wavelength compound autofluorescence in cells – imaging, high-content imaging, artefact control, dose response (AID 2124).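 For all read-outs here: cells exposed to compound for 48 hours before fixing.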 The settings on record: cells, GFP-channel autofluorescence, high-content imaging, at 10 µM; for z-score: stronger effect = higher value.

For the molecule `Oc1c(C=NCc2ccc(F)cc2)[nH]c2ccc(Br)c(Cl)c12`, the z-score is -0.31 (inactive) and the cell count came to 3310 cells.
Regarding `CCCNC(=O)Cn1c(=O)/c(=C\c2ccc(-c3ccc([N+](=O)[O-])cc3)o2)s/c1=C\C(=O)C(C)(C)C`, the z-score is 2.07 and the cell count was found to be 3100 cells.
Take `CCCCCCN1C=CC(=C/C=C(\C#N)C(=O)OCC)C=C1`: the z-score is 0.43 and the cell count came to 3270 cells.
The like results for `C(=C/c1nccc2c1[nH]c1ccccc12)/c1ccc2c(c1)OCO2` were, in that order, 0.26 and 1910 cells.
Consider `CCOC(=O)COc1ccc(C(=O)NC2CCCCC2)cc1`, for which the z-score was -0.38 (inactive) and the cell count turned out to be 3240 cells.
`C=CCn1c(SCCOc2ccc(OC)cc2)nnc1C(C)NC(=O)Cc1ccc(OC)cc1` (configuration not stated): the z-score is -0.33 (inactive) and the cell count was determined as 3140 cells.
The like results for `O=C(Cc1nc(-c2ccc([N+](=O)[O-])cc2)cs1)Nc1ccccc1` were, in that order, -0.39 (inactive) and 2770 cells.
In the same order, the values of `CC(=O)Nc1nc(-c2ccc(Br)s2)cs1` are -0.39 (inactive) and 3320 cells.
The like results for `COc1ccc(NC(=O)c2[nH]c(C)c(C(C)=O)c2C)cc1Cl` were, in that order, -0.33 (inactive) and 3410 cells.
On to `COc1ccc(N=C2NC(=O)S/C2=C\c2ccc(N(C)C)cc2)cc1`, for which the z-score is -0.25 (inactive) and the cell count was 2870 cells.
On to `Cc1cc(C)n(-c2ccc(OCC(=O)O)nn2)n1`, for which the z-score was -0.33 (inactive) and the cell count worked out at 3400 cells.
In the same order, the values of `COc1ccc(NC(=O)CSc2nnc(-c3cccs3)n2C)cc1OC` are -0.39 (inactive) and 2880 cells.
In the same order, the values of `CCCOc1cc(N(CC)CC)ccc1/C=C(/C#N)c1nc2ccc(C)cc2[nH]1` are 0.73 and 1370 cells.
Turning to `COCCNC(=O)Cc1ccc(F)cc1`, the z-score is -0.33 (inactive) and the cell count was determined as 2820 cells.
In the same order, the values of `Cc1cc(SCCOc2ccccc2)nc(N)n1` are -0.39 (inactive) and 3470 cells.
The like results for `O=C(N/N=C\c1cn(-c2ccccc2)nc1-c1ccccc1)c1ccc(Br)o1` were, in that order, -0.32 (inactive) and 626 cells.
The like results for `CCCCc1ccc2[nH]cc(CCN)c2c1` were, in that order, -0.38 (inactive) and 2320 cells.
As for `O=C(C1=NN(c2ccccc2)C2C(=O)N(c3cccc(Cl)c3)C(=O)C12)c1ccccc1` (configuration not stated), the z-score is -0.32 (inactive) and the cell count stood at 3140 cells.
The like results for `CN(C)c1ccc(/C=C2\SC(=S)N(Nc3ncc(C(F)(F)F)cc3Cl)C2=O)cc1` were, in that order, 0.57 and 2530 cells.
In the same order, the values of `Cc1ccc(-n2c(C)nc3oc4ccccc4c(=O)c3c2=O)cc1` are -0.33 (inactive) and 3180 cells.
In the same order, the values of `Cc1cccc(NC(=O)/C=C/c2ccc([N+](=O)[O-])s2)c1` are 0.41 and 244 cells.
Take `COc1c2c(nc3ccccc13)OC(C(C)(O)COC(C)=O)C2` (configuration not stated): the z-score is -0.33 (inactive) and the cell count was found to be 2830 cells.
Regarding `CN1CCN(C(=O)/C(=C\c2cccs2)NC(=O)c2cccs2)CC1`, the z-score was -0.33 (inactive) and the cell count was determined as 3070 cells.
The like results for `Nc1c(C(=O)c2ccc(Cl)cc2)sc2nsc(SCCN3CCOCC3)c12` were, in that order, 0.31 and 2540 cells.
The like results for `COc1cc2cc(C)c3nnc(SCC(=O)Nc4cc(C)on4)n3c2cc1OC` were, in that order, -0.33 (inactive) and 2840 cells.
In the same order, the values of `COc1ccc(NC2=Nc3ccccc3N3C2=Nc2c(c(C)nn2-c2ccc(C)cc2)C3c2cccnc2)cc1` (configuration not stated) are -0.31 (inactive) and 2790 cells.
Regarding `O=C(/C=C/c1ccco1)NC(=S)Nc1ccccc1N1CCCC1`, the z-score is -0.39 (inactive) and the cell count is 2690 cells.
The like results for `Nc1c(C(=O)C2CC2)sc2nc(-c3ccccc3)cc(C(F)(F)F)c12` were, in that order, 0.39 and 3090 cells.
For the molecule `COc1ccc(-n2c(Cc3cccn3C)nnc2SCC(=O)Nc2cccc(C)c2C)cc1`, the z-score is -0.33 (inactive) and the cell count turned out to be 3130 cells.
The like results for `Cc1noc(C)c1CS(=O)(=O)c1ccc(Br)cc1` were, in that order, -0.26 (inactive) and 2900 cells.
In the case of `Cc1cc(N/N=C/c2ccc([N+](=O)[O-])o2)nc2ccccc12`, the z-score was 0.28 and the cell count came out at 733 cells.
On to `N#CC(C#N)=C1C=C2C=C(N3CCOCC3)CCC2CC1` (configuration not stated), for which the z-score was 1.21 and the cell count came out at 3080 cells.
In the same order, the values of `COc1ccccc1CC(=O)NC1CC(C)(C)NC(C)(C)C1` are -0.33 (inactive) and 2940 cells.
In the same order, the values of `Cc1ccc(-n2c(Cc3cccs3)nnc2SCC(=O)OC(C)C)cc1` are -0.38 (inactive) and 2980 cells.
For `Nc1nnc(-c2cc3c(ccc4ccccc43)oc2=O)s1`, the z-score is -0.23 (inactive) and the cell count was determined as 2510 cells.
In the case of `OC1(c2cn(Cc3ccccc3)nn2)CCCCC1`, the z-score is -0.33 (inactive) and the cell count was found to be 3100 cells.
In the same order, the values of `CCOC(=O)N1CCN(C(=O)NC2CCCCC2)CC1` are -0.38 (inactive) and 3150 cells.
The like results for `Cc1ccccc1-n1ncc2c(SCC(=O)NCc3cccs3)ncnc21` were, in that order, -0.38 (inactive) and 2670 cells.
The like results for `COC(=O)Cc1c(C)nc2nc(NCc3ccccc3OC)[nH]n2c1=O` were, in that order, -0.26 (inactive) and 3050 cells.
In the case of `Cc1cc(C)nc(SCSc2nc(C)cc(C)n2)n1`, the z-score was -0.38 (inactive) and the cell count was 3370 cells.
The like results for `COc1cc(OC)c(OC)cc1/C=C1\Oc2cc(OS(C)(=O)=O)ccc2C1=O` were, in that order, -0.24 (inactive) and 3060 cells.
Regarding `O=C(Nc1ccc(N2CCCCC2)cc1)c1cccnc1`, the z-score is -0.39 (inactive) and the cell count came out at 3060 cells.
In the same order, the values of `COc1cc([N+](=O)[O-])ccc1-c1ccc(/C=N/NC(N)=O)o1` are -0.34 (inactive) and 2860 cells.
In the same order, the values of `CCCCn1c(=O)[nH]c2nc3cc(N)ccc3nc2c1=O` are -0.32 (inactive) and 3540 cells.
The like results for `Cc1ccc(/C=[N+](\[O-])c2ccc(N(C)C)cc2)c2nsnc12` were, in that order, -0.38 (inactive) and 1880 cells.
As to `CCOC(=O)c1nnn(-c2nonc2N)c1-c1ccc(OCC)cc1`, the z-score was -0.39 (inactive) and the cell count is 3520 cells.
In the same order, the values of `N#CC1CC(c2ccc([N+](=O)[O-])cc2)=NN1c1ccc([N+](=O)[O-])cc1` (configuration not stated) are -0.25 (inactive) and 3490 cells.
For the molecule `CC1CN(C(=O)CCn2c(=O)oc3ccccc32)CC(C)O1` (configuration not stated), the z-score is -0.39 (inactive) and the cell count worked out at 3070 cells.
The like results for `Nc1c(C(=O)N/N=C/c2ccccc2Cl)oc2nc(-c3ccccc3)cc(-c3ccco3)c12` were, in that order, -0.27 (inactive) and 2970 cells.
In the same order, the values of `Cc1cc(=O)oc2cc(OCC(=O)OCC(=O)NC3CC3)ccc12` are -0.38 (inactive) and 3150 cells.
In the same order, the values of `CCOC(=O)CN1CC23C=CC(O2)C(C(=O)Nc2cc(OC)ccc2OC)C3C1=O` (configuration not stated) are -0.38 (inactive) and 3210 cells.
As to `Cc1csc(NC(=O)CN(C)S(=O)(=O)c2cccc3cccnc23)n1`, the z-score is -0.33 (inactive) and the cell count was determined as 3250 cells.
Regarding `c1ccc(-n2ncc3c(N4CCN(c5ccccn5)CC4)nc(N4CCCCCC4)nc32)cc1`, the z-score is -0.38 (inactive) and the cell count was determined as 3020 cells.
The like results for `CC1=NNC(=O)C1CCC(=O)N/N=C/c1ccc(C)cc1` (configuration not stated) were, in that order, -0.39 (inactive) and 3320 cells.
The like results for `CN1C(=S)N(c2cccnc2)C(=O)/C1=C\c1ccc(N(C)C)cc1` were, in that order, -0.22 (inactive) and 3030 cells.
On to `CCn1c(SCC(=O)c2c[nH]c3ccccc23)nc2cc(S(=O)(=O)N3CCOCC3)ccc21`, for which the z-score is -0.36 (inactive) and the cell count worked out at 3200 cells.
The like results for `CC(C)(C)C(=O)c1sc2nc(-c3cccs3)cc(C(F)(F)F)c2c1N` were, in that order, -0.22 (inactive) and 2740 cells.
Take `Cc1cc(NC(=S)N(Cc2ccc(Br)cc2)Cc2ccc(C(=O)O)cc2)ccc1Cl`: the z-score is -0.38 (inactive) and the cell count came to 2830 cells.
In the same order, the values of `O=C(CSc1nc2ccc(Cl)cc2o1)NCc1ccc2c(c1)OCO2` are -0.33 (inactive) and 3140 cells.
In the same order, the values of `O=S(=O)(Nc1cc2nc3ccccc3nc2n1Cc1ccccc1)c1ccc(Cl)cc1` are 0.09 and 777 cells.
For the molecule `COc1ccccc1N1CCN(C/C(O)=C(\C#N)c2nc(-c3ccccc3)cs2)CC1`, the z-score is -0.38 (inactive) and the cell count amounted to 3090 cells.
As for `CCCCN1C(=O)/C(=C/C=C2\Oc3ccccc3N2CC)SC1=S`, the z-score was 1.42 and the cell count was 3450 cells.
Take `CC(=O)NC(c1ccc(Cl)cc1)c1c(O)ccc2ccc(O)cc12` (configuration not stated): the z-score was -0.38 (inactive) and the cell count came out at 3140 cells.
In the same order, the values of `O=c1[nH]c(/C=C/c2ccccc2OC(F)F)nc2c1cnn2-c1ccccc1` are -0.38 (inactive) and 2240 cells.
Turning to `COc1ccc(-c2ccc3c(N)c(C(=O)c4cccc(OC)c4)sc3n2)cc1`, the z-score was -0.24 (inactive) and the cell count amounted to 2850 cells.
The like results for `O=c1c2ccccc2c(C=Nc2ccccc2O)c(O)n1-c1nccs1` were, in that order, -0.35 (inactive) and 2390 cells.
